Experimental data published in ChEMBL document CHEMBL4507293 (2021).

How the values were obtained:
[1] = test system: Receptor-type tyrosine-protein kinase FLT3 (Homo sapiens), P36888 [K663Q]; conditions: Compound concentration 100.0 nM
[2] = biological target: Receptor-type tyrosine-protein kinase FLT3 (Homo sapiens) (UniProt P36888); conditions: Compound concentration 100.0 nM
[3] = biological target: Serine/threonine-protein kinase TAO1 (Homo sapiens) (UniProt Q7L7X3); conditions: Compound concentration 100.0 nM
[4] = biological target: Glycogen synthase kinase-3 alpha (Homo sapiens) (UniProt P49840); conditions: Compound concentration 100.0 nM
[5] = biological target: Serine/threonine-protein kinase 38 (Homo sapiens) (UniProt Q15208); conditions: Compound concentration 100.0 nM
[6] = biological target: Myosin light chain kinase family member 4 (Homo sapiens) (UniProt Q86YV6); conditions: Compound concentration 100.0 nM
[7] = biological target: Serine/threonine-protein kinase RIO3 (Homo sapiens) (UniProt O14730); conditions: Compound concentration 100.0 nM
[8] = test system: Tyrosine-protein kinase ABL1 (Homo sapiens), P00519 [Q252H]; conditions: Compound concentration 100.0 nM
[9] = biological target: RAF proto-oncogene serine/threonine-protein kinase (Homo sapiens) (UniProt P04049); conditions: Compound concentration 100.0 nM
[10] = biological target: Macrophage-stimulating protein receptor (Homo sapiens) (UniProt Q04912); conditions: Compound concentration 100.0 nM
[11] = test system: Receptor-type tyrosine-protein kinase FLT3 (Homo sapiens), P36888 [R834Q]; conditions: Compound concentration 100.0 nM
[12] = biological target: Mitogen-activated protein kinase 6 (Homo sapiens) (UniProt Q16659); conditions: Compound concentration 100.0 nM
[13] = biological target: Cyclin-dependent kinase 4 (Homo sapiens) (UniProt P11802); conditions: Compound concentration 100.0 nM
[14] = biological target: Dual specificity protein kinase TTK (Homo sapiens) (UniProt P33981); conditions: Compound concentration 100.0 nM
[15] = test system: Tyrosine-protein kinase ABL1 (Homo sapiens), P00519 [T315I]; conditions: Compound concentration 100.0 nM
[16] = biological target: Serine/threonine-protein kinase DCLK3 (Homo sapiens) (UniProt Q9C098); conditions: Compound concentration 100.0 nM
[17] = biological target: Dual serine/threonine and tyrosine protein kinase (Homo sapiens) (UniProt Q6XUX3); conditions: Compound concentration 100.0 nM
[18] = biological target: Ribosomal protein S6 kinase alpha-2 (Homo sapiens) (UniProt Q15349); conditions: Compound concentration 100.0 nM
[19] = biological target: Tyrosine-protein kinase Srms (Homo sapiens) (UniProt Q9H3Y6); conditions: Compound concentration 100.0 nM
[20] = biological target: Serine/threonine-protein kinase D3 (Homo sapiens) (UniProt O94806); conditions: Compound concentration 100.0 nM
[21] = test system: Serine/threonine-protein kinase B-raf (Homo sapiens), P15056 [V600E]; conditions: Compound concentration 100.0 nM
[22] = biological target: Tyrosine-protein kinase Blk (Homo sapiens) (UniProt P51451); conditions: Compound concentration 100.0 nM
[23] = biological target: Mitogen-activated protein kinase kinase kinase 20 (Homo sapiens) (UniProt Q9NYL2); conditions: Compound concentration 100.0 nM
[24] = biological target: Dual specificity mitogen-activated protein kinase kinase 3 (Homo sapiens) (UniProt P46734); conditions: Compound concentration 100.0 nM
[25] = biological target: Cyclin-dependent kinase-like 1 (Homo sapiens) (UniProt Q00532); conditions: Compound concentration 100.0 nM
[26] = biological target: Serine/threonine-protein kinase PAK 3 (Homo sapiens) (UniProt O75914); conditions: Compound concentration 100.0 nM
[27] = biological target: TRAF2 and NCK-interacting protein kinase (Homo sapiens) (UniProt Q9UKE5); conditions: Compound concentration 100.0 nM
[28] = biological target: Serine/threonine-protein kinase 24 (Homo sapiens) (UniProt Q9Y6E0); conditions: Compound concentration 100.0 nM
[29] = biological target: Cyclin-dependent kinase 17 (Homo sapiens) (UniProt Q00537); conditions: Compound concentration 100.0 nM
[30] = biological target: Mitogen-activated protein kinase kinase kinase 3 (Homo sapiens) (UniProt Q99759); conditions: Compound concentration 100.0 nM
[31] = biological target: Serine/threonine-protein kinase Sgk1 (Homo sapiens) (UniProt O00141); conditions: Compound concentration 100.0 nM
[32] = biological target: Serine/threonine-protein kinase Sgk2 (Homo sapiens) (UniProt Q9HBY8); conditions: Compound concentration 100.0 nM
[33] = biological target: Mitogen-activated protein kinase kinase kinase kinase 4 (Homo sapiens) (UniProt O95819); conditions: Compound concentration 100.0 nM
[34] = biological target: Serine/threonine-protein kinase 35 (Homo sapiens) (UniProt Q8TDR2); conditions: Compound concentration 100.0 nM
[35] = biological target: Serine/threonine-protein kinase SBK1 (Homo sapiens) (UniProt Q52WX2); conditions: Compound concentration 100.0 nM
[36] = biological target: Dual specificity protein kinase CLK4 (Homo sapiens) (UniProt Q9HAZ1); conditions: Compound concentration 100.0 nM
[37] = biological target: Mitogen-activated protein kinase 10 (Homo sapiens) (UniProt P53779); conditions: Compound concentration 100.0 nM
[38] = biological target: Casein kinase I isoform alpha-like (Homo sapiens) (UniProt Q8N752); conditions: Compound concentration 100.0 nM
[39] = biological target: Mitotic checkpoint serine/threonine-protein kinase BUB1 (Homo sapiens) (UniProt O43683); conditions: Compound concentration 100.0 nM
[40] = biological target: Ephrin type-A receptor 5 (Homo sapiens) (UniProt P54756); conditions: Compound concentration 100.0 nM
[41] = biological target: Serine/threonine-protein kinase TAO2 (Homo sapiens) (UniProt Q9UL54); conditions: Compound concentration 100.0 nM
[42] = biological target: Aurora kinase C (Homo sapiens) (UniProt Q9UQB9); conditions: Compound concentration 100.0 nM
[43] = biological target: Mitogen-activated protein kinase 13 (Homo sapiens) (UniProt O15264); conditions: Compound concentration 100.0 nM
[44] = test system: Mast/stem cell growth factor receptor Kit (Homo sapiens), P10721 [A829P]; conditions: Compound concentration 100.0 nM
[45] = biological target: Ephrin type-B receptor 6 (Homo sapiens) (UniProt O15197); conditions: Compound concentration 100.0 nM
[46] = biological target: cGMP-specific 3',5'-cyclic phosphodiesterase (Homo sapiens, UniProt O76074); assay: Biochemical assay (PDE5A)

Sequence of Serine/threonine-protein kinase SBK1 (Homo sapiens) (Q52WX2 whole entry): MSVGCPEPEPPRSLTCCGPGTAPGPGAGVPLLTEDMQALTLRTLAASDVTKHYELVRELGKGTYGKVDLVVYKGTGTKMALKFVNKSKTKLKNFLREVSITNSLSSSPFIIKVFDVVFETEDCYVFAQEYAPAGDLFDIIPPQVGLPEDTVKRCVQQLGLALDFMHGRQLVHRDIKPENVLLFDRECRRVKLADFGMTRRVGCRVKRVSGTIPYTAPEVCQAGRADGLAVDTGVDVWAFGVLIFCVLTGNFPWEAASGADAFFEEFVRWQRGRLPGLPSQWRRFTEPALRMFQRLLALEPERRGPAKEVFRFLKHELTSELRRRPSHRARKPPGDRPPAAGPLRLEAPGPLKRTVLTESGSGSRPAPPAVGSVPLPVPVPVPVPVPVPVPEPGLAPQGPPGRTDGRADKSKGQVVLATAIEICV
Sequence of Aurora kinase C (Homo sapiens) (Q9UQB9 whole entry): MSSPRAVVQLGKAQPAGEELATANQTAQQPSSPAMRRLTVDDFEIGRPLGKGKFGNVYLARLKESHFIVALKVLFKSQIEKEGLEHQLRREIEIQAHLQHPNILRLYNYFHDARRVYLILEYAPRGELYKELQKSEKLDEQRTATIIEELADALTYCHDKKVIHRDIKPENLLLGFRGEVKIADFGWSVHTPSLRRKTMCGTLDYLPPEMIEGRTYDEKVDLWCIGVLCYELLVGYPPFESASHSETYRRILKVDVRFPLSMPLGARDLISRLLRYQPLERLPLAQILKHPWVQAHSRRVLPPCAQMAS
Sequence of Tyrosine-protein kinase Srms (Homo sapiens) (Q9H3Y6 whole entry): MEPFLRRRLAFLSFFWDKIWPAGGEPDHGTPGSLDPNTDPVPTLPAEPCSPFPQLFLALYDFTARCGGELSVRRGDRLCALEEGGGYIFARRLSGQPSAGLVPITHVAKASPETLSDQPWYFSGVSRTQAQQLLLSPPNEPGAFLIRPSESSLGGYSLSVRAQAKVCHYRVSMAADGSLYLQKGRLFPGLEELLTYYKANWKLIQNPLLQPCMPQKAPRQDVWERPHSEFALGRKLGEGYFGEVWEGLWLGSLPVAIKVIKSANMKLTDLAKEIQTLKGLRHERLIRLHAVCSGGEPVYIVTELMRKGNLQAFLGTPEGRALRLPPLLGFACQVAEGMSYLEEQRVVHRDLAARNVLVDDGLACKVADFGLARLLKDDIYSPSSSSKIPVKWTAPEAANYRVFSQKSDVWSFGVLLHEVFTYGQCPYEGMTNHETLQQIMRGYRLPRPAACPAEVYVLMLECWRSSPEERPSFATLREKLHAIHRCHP
Sequence of Serine/threonine-protein kinase B-raf (Homo sapiens), P15056 [V600E] (P15056 whole entry V600E): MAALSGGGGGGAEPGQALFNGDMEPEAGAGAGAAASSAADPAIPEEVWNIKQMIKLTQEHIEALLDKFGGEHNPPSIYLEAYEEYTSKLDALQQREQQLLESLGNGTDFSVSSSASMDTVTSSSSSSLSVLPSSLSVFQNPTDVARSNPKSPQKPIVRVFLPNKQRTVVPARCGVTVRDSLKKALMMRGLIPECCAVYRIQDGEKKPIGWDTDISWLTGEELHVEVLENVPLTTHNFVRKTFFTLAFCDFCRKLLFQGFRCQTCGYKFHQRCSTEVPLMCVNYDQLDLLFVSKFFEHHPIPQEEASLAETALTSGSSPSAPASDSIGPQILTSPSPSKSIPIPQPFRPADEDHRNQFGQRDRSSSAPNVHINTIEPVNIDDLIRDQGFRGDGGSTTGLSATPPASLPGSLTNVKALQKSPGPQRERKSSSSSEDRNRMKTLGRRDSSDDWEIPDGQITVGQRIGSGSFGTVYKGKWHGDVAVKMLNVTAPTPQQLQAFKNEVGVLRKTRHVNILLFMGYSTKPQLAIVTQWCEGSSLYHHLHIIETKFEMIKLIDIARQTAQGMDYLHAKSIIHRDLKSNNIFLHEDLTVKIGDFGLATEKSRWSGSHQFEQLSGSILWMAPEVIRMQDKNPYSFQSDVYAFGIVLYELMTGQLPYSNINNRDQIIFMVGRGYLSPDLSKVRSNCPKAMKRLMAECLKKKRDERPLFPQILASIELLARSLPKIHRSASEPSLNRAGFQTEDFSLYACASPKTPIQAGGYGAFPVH
Sequence of Glycogen synthase kinase-3 alpha (Homo sapiens) (P49840 2-483 limits assumed): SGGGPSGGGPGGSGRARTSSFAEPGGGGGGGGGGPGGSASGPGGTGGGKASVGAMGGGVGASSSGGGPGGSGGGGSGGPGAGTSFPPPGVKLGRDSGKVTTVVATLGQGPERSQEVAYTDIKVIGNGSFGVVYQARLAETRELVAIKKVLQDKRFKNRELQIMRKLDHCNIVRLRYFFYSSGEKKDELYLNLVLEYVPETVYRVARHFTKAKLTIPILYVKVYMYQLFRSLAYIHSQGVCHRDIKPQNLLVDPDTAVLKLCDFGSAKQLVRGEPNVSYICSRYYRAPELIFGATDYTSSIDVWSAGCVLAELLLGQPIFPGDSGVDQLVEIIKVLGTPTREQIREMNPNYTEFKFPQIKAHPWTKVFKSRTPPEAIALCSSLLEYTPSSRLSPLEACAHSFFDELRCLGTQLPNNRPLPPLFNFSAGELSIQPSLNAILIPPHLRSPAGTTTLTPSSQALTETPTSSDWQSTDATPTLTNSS
Sequence of Dual serine/threonine and tyrosine protein kinase (Homo sapiens) (Q6XUX3 whole entry): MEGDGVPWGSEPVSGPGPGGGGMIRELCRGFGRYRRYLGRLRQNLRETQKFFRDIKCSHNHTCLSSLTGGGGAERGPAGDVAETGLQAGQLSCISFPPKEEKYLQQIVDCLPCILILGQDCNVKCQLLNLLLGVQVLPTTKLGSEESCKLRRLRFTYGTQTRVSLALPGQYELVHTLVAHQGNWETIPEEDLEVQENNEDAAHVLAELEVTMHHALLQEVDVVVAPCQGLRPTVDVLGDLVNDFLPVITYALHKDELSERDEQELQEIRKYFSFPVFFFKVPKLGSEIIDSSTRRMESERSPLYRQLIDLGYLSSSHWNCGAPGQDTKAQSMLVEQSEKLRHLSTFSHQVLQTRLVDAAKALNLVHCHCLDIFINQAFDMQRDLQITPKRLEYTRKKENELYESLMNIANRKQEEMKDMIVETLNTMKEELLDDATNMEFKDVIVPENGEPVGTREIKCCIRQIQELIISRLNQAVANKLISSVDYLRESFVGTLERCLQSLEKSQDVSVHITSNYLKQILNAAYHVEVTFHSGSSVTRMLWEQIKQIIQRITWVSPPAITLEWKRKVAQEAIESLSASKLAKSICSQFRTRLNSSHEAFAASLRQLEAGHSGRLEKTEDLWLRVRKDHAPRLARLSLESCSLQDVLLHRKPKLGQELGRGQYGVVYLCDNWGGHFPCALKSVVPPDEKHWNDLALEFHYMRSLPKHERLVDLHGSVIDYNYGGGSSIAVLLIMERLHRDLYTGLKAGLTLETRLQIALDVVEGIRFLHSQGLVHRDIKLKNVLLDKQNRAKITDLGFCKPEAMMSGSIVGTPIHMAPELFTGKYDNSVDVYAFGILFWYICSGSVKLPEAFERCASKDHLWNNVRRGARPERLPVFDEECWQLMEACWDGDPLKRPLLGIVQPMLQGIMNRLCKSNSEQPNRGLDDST
Sequence of Serine/threonine-protein kinase TAO1 (Homo sapiens) (Q7L7X3 whole entry): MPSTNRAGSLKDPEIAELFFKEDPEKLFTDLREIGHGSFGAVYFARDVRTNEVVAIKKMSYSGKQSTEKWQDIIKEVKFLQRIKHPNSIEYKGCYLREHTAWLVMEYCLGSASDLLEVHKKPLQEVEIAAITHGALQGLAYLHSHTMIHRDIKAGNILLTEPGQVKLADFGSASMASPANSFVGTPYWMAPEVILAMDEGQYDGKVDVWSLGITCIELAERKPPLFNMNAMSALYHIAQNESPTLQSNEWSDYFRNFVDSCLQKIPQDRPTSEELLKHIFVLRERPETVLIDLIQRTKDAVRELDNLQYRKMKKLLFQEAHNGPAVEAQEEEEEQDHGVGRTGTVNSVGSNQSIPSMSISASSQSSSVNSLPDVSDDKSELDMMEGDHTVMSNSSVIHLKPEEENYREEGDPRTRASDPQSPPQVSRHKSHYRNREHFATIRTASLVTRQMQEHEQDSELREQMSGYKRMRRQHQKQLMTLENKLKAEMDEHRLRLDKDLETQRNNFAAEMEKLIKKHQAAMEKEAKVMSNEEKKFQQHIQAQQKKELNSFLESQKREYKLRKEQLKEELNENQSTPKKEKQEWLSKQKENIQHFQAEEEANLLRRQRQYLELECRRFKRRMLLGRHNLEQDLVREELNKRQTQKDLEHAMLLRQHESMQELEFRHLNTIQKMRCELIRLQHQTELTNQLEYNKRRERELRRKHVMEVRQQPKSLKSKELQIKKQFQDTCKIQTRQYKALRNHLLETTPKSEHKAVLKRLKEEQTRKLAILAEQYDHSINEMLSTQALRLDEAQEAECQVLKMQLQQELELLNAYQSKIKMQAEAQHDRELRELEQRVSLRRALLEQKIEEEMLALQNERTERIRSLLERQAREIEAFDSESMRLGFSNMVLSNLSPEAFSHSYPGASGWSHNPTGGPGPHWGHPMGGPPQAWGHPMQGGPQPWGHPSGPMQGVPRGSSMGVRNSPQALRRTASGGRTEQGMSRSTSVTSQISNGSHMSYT
Sequence of Mitogen-activated protein kinase kinase kinase 3 (Homo sapiens) (Q99759 whole entry): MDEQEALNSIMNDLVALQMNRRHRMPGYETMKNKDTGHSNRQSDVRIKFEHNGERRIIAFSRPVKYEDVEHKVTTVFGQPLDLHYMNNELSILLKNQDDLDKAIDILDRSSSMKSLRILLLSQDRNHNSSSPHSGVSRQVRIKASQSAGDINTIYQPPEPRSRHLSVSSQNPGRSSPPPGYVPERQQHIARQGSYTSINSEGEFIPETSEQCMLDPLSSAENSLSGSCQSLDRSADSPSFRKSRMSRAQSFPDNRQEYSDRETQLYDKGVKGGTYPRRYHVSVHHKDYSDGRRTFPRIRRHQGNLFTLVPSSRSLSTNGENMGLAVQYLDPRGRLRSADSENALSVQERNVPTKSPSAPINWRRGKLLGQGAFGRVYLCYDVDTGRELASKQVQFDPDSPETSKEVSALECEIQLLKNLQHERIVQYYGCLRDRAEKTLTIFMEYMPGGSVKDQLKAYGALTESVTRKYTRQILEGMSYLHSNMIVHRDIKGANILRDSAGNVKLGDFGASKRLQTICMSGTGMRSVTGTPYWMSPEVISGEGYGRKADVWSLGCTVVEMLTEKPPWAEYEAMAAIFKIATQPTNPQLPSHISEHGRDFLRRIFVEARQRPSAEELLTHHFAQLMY

Compound: CC(C)CC(=O)N1CCc2nc(-c3ccc(Br)cc3)nc(N(C)Cc3ccccc3)c2C1 [THPP-1-NC]
- residual activity [1]: 100%
- residual activity [2]: 100%
- residual activity [3]: 100%
- residual activity [4]: 100%
- residual activity [5]: 100%
- residual activity [6]: 100%
- residual activity [7]: 100%
- residual activity [8]: 53%
- residual activity [9]: 100%
- residual activity [10]: 100%
- residual activity [11]: 65%
- residual activity [12]: 100%
- residual activity [13]: 100%
- residual activity [14]: 100%
- residual activity [15]: 100%
- residual activity [16]: 100%
- residual activity [17]: 100%
- residual activity [18]: 100%
- residual activity [19]: 100%
- residual activity [20]: 100%
- residual activity [21]: 100%
- residual activity [22]: 84%
- residual activity [23]: 100%
- residual activity [24]: 100%
- residual activity [25]: 63%
- residual activity [26]: 100%
- residual activity [27]: 100%
- residual activity [28]: 100%
- residual activity [29]: 100%
- residual activity [30]: 77%
- residual activity [31]: 99%
- residual activity [32]: 94%
- residual activity [33]: 84%
- residual activity [34]: 96%
- residual activity [35]: 100%
- residual activity [36]: 92%
- residual activity [37]: 78%
- residual activity [38]: 100%
- residual activity [39]: 78%
- residual activity [40]: 89%
- residual activity [41]: 97%
- residual activity [42]: 100%
- residual activity [43]: 100%
- residual activity [44]: 97%
- residual activity [45]: 91%
- Ki [46]: 6.89 µM (not active)

Compound: COCCOc1nc(-c2ccc(Cl)nc2)nc2c1CN(C(=O)c1ncn3ccccc13)CC2 [THPP-1]
- residual activity [1]: 100%
- residual activity [2]: 100%
- residual activity [3]: 100%
- residual activity [4]: 100%
- residual activity [5]: 100%
- residual activity [6]: 100%
- residual activity [7]: 100%
- residual activity [8]: 74%
- residual activity [9]: 97%
- residual activity [10]: 100%
- residual activity [11]: 65%
- residual activity [12]: 100%
- residual activity [13]: 93%
- residual activity [14]: 100%
- residual activity [15]: 100%
- residual activity [16]: 100%
- residual activity [17]: 100%
- residual activity [18]: 100%
- residual activity [19]: 100%
- residual activity [20]: 94%
- residual activity [21]: 100%
- residual activity [22]: 75%
- residual activity [23]: 100%
- residual activity [24]: 93%
- residual activity [25]: 61%
- residual activity [26]: 100%
- residual activity [27]: 100%
- residual activity [28]: 100%
- residual activity [29]: 100%
- residual activity [30]: 96%
- residual activity [31]: 91%
- residual activity [32]: 88%
- residual activity [33]: 73%
- residual activity [34]: 100%
- residual activity [35]: 100%
- residual activity [36]: 100%
- residual activity [37]: 91%
- residual activity [38]: 100%
- residual activity [39]: 82%
- residual activity [40]: 99%
- residual activity [41]: 99%
- residual activity [42]: 95%
- residual activity [43]: 100%
- residual activity [44]: 88%
- residual activity [45]: 78%
- Ki [46]: 0.116 µM
